pIC50: −log10 of the molar value.
target: T1, active BTK enzyme (Upstate 14-552) (Homo sapiens, UniProt Q06187); assay: In Vitro BTK Kinase Assay: Btk-PolyGAT-LS Assay; assay type: biochemical; settings: ATP 10 μM, polyGAT 100 nM, BTK 0.25 nM, 30 minutes, TRF readout
T1 construct: purchased Upstate 14-552
Method: In Vitro BTK Kinase Assay: Btk-PolyGAT-LS Assay The purpose of the BTK in vitro assay is to determine compound potency against BTK through the measurement of IC50. Compound inhibition is measured after monitoring the amount of phosphorylation of a fluorescein-labeled polyGAT peptide (Invitrogen PV3611) in the presence of active BTK enzyme (Upstate 14-552), ATP, and inhibitor. The BTK kinase reaction was done in a black 96 well plate (costar 3694). For a typical assay, a 24 μL aliquot of a ATP/peptide master mix (final concentration; ATP 10 μM, polyGAT 100 nM) in kinase buffer (10 mM Tris-HCl pH 7.5, 10 mM MgCl2, 200 μM […], 5 mM DTT, 0.01% Triton X-100, and 0.2 mg/ml casein) is added to each well. Next, […] of a 4-fold, 40× compound titration in 100% DMSO solvent is added, followed by adding 15 μL of BTK enzyme mix in 1× kinase buffer (with a final concentration of 0.25 nM). The assay is incubated for 30 minutes before being stopped with 28 μL of a 50 mM EDTA solution. Aliquots (5 μL) of the kinase reaction are transferred to a low volume white 384 well plate (Coming 3674), and 5 μL of a 2× detection buffer (Invitrogen PV3574, with 4 nM Tb-PY20 antibody, Invitrogen PV3552) is added. The plate is covered and incubated for 45 minutes at room temperature. Time resolved fluorescence (TRF) on Molecular Devices M5 (332 nm excitation; 488 nm emission; 518 nm fluorescein emission) is measured. IC50 values are calculated using a four parameter fit with 100% enzyme activity determined from the DMSO control and 0% activity from the EDTA control.

T1 sequence (Q06187 whole entry): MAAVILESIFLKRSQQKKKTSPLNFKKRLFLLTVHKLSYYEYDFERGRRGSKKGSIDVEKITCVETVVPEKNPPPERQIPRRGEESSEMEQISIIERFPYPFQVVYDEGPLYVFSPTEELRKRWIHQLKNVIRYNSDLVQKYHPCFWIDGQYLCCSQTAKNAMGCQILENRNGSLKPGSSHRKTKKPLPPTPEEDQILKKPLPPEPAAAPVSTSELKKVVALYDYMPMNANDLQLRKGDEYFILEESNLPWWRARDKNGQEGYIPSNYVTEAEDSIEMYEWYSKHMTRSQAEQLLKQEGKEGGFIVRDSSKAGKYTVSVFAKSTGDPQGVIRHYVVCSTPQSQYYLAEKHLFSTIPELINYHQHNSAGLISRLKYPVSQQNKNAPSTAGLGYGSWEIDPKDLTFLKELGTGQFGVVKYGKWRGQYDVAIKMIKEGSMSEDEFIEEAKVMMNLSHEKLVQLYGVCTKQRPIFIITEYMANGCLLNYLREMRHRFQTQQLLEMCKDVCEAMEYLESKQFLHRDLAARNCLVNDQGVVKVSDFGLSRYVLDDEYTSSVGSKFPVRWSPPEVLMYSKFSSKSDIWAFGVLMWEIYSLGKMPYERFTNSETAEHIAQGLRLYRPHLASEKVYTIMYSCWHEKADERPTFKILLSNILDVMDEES

| Compound | pIC50 |
| --- | --- |
| Cc1cc(-c2ccncc2N2CCN(C(=O)/C=C/CN(C)C)CC2)ccc1CN1CCc2c(cnn2C(C)(C)C)C1=O [Example 72, (E)-1-(tert-butyl)-5-(4-(3-(4-(4-(dimethylamino)but-2-enoyl)piperazin-1-yl)pyridin-4-yl)-2-methylbenzyl)-1,5,6,7-tetrahydro-4H-pyrazolo[4,3-c]pyridin-4-one] | ≥ 9.00 |
| CN(C)C/C=C/C(=O)N1CCN(c2cnccc2-c2ccc(CNC(=O)c3noc(C4(C)CC4)n3)c(C(F)F)c2)CC1 [Example 88, (E)-N-(2-(difluoromethyl)-4-(3-(4-(4-(dimethylamino)but-2-enoyl)piperazin-1-yl)pyridin-4-yl)benzyl)-5-(1-methylcyclopropyl)-1,2,4-oxadiazole-3-carboxamide] | 8.00 to 9.00 |
| C=CC(=O)N1CCN(c2cncnc2-c2ccc(CNC(=O)c3nc(C4(C)CC4)no3)c(C)c2)CC1 [Example 84, N-(4-(5-(4-acryloylpiperazin-1-yl)pyrimidin-4-yl)-2-methylbenzyl)-3-(1-methylcyclopropyl)-1,2,4-oxadiazole-5-carboxamide] | ≥ 9.00 |
| Cc1cc(-c2ccncc2N2CCN(C(=O)/C=C/CN(C)C)CC2)ccc1CNC(=O)c1noc(C2(CF)CC2)n1 [Example 93, (E)-N-(4-(3-(4-(4-(dimethylamino)but-2-enoyl)piperazin-1-yl)pyridin-4-yl)-2-methylbenzyl)-5-(1-(fluoromethyl)cyclopropyl)-1,2,4-oxadiazole-3-carboxamide] | ≥ 9.00 |
| Cc1cc(-c2ccncc2N2CCN(C(=O)C3CO3)CC2)ccc1CNC(=O)c1noc(C(C)(C)C)n1 (stereo not drawn) [Example 59, 5-(tert-butyl)-N-(2-methyl-4-(3-(4-(oxirane-2-carbonyl)piperazin-1-yl)pyridin-4-yl)benzyl)-1,2,4-oxadiazole-3-carboxamide] | 8.00 to 9.00 |
| CN(C)C/C=C/C(=O)N1CCN(c2cnccc2-c2ccc(CNC(=O)c3nc(C(C)(C)C)no3)c(C(F)F)c2)CC1 [Example 89, (E)-3-(tert-butyl)-N-(2-(difluoromethyl)-4-(3-(4-(4-(dimethylamino)but-2-enoyl)piperazin-1-yl)pyridin-4-yl)benzyl)-1,2,4-oxadiazole-5-carboxamide] | ≥ 9.00 |
| C=CC(=O)N1CCC[C@@H](c2cnccc2-c2ccc(CNC(=O)c3cn(C(C)(C)C)nn3)c(C)c2)C1 (single isomer, unassigned) [Example 25] | < 8.00 |
| CN(C)C/C=C/C(=O)N1CCN(c2cnccc2-c2ccc(CNC(=O)c3nc(C(C)(C)C)no3)c(C(F)(F)F)c2)CC1 [Example 92, (E)-3-(tert-butyl)-N-(4-(3-(4-(4-(dimethylamino)but-2-enoyl)piperazin-1-yl)pyridin-4-yl)-2-(trifluoromethyl)benzyl)-1,2,4-oxadiazole-5-carboxamide] | ≥ 9.00 |
| Cc1cc(-c2ccncc2N2CCN(C(=O)/C=C/CN(C)C)C(C)C2)ccc1CNC(=O)c1noc(C(C)(C)C)n1 (stereo not drawn) [Example 74, (E)-5-(tert-butyl)-N-(4-(3-(4-(4-(dimethylamino)but-2-enoyl)-3-methylpiperazin-1-yl)pyridin-4-yl)-2-methylbenzyl)-1,2,4-oxadiazole-3-carboxamide] | ≥ 9.00 |
| C=CC(=O)N1CCC[C@@H](c2cnccc2-c2ccc(CNC(=O)c3nc(C4(C)CC4)no3)c(C)c2)C1 (single isomer, unassigned) [Example 31] | < 8.00 |
| C=CC(=O)N(C)C1CCN(c2cnccc2-c2ccc(CNC(=O)c3cn(C(C)(C)C)nn3)c(C)c2)C1=O (stereo not drawn) [Example 11, 1-(tert-butyl)-N-(2-methyl-4-(3-(3-(N-methylacrylamido)-2-oxopyrrolidin-1-yl)pyridin-4-yl)benzyl)-1H-1,2,3-triazole-4-carboxamide] | < 8.00 |
| CN(C)C/C=C/C(=O)N1CCN(c2cnccc2-c2ccc(CNC(=O)c3noc(C4(C)CC4)n3)c(C(F)(F)F)c2)CC1 [Example 91, (E)-N-(4-(3-(4-(4-(dimethylamino)but-2-enoyl)piperazin-1-yl)pyridin-4-yl)-2-(trifluoromethyl)benzyl)-5-(1-methylcyclopropyl)-1,2,4-oxadiazole-3-carboxamide] | ≥ 9.00 |
| C=CC(=O)N1CCN(c2cncnc2-c2ccc(CNC(=O)c3noc(C(C)(C)C)n3)c(C)c2)CC1 [Example 80, N-(4-(5-(4-acryloylpiperazin-1-yl)pyrimidin-4-yl)-2-methylbenzyl)-5-(tert-butyl)-1,2,4-oxadiazole-3-carboxamide] | ≥ 9.00 |
| Cc1cc(-c2ccncc2N2CCN(C(=O)/C=C/CN3CCC3)CC2)ccc1CNC(=O)c1noc(C(C)(C)C)n1 [Example 66, (E)-N-(4-(3-(4-(4-(azetidin-1-yl)but-2-enoyl)piperazin-1-yl)pyridin-4-yl)-2-methylbenzyl)-5-(tert-butyl)-1,2,4-oxadiazole-3-carboxamide] | 8.00 to 9.00 |
| C=CC(=O)N(C)[C@@H]1CCCN(c2cncc(C#N)c2-c2ccc(CNC(=O)c3cn(C(C)(C)C)nn3)c(C)c2F)C1 [Example 47, 1-(tert-butyl)-N-(4-(3-cyano-5-((R)-3-(N-methylacrylamido)piperidin-1-yl)pyridin-4-yl)-3-fluoro-2-methylbenzyl)-1H-1,2,3-triazole-4-carboxamide] | ≥ 9.00 |
| C=CC(=O)N1CCN(c2cnccc2-c2ccc(CNC(=O)c3ccc(C(F)F)nc3)c(C)c2)CC1 [Example 97, N-(4-(3-(4-acryloylpiperazin-1-yl)pyridin-4-yl)-2-methylbenzyl)-6-(difluoromethyl)nicotinamide] | 8.00 to 9.00 |
| Cc1cc(-c2ccncc2N2CCN(C(=O)/C=C/CN3CC(F)C3)CC2)ccc1CNC(=O)c1noc(C(C)(C)C)n1 [Example 64, (E)-5-(tert-butyl)-N-(4-(3-(4-(4-(3-fluoroazetidin-1-yl)but-2-enoyl)piperazin-1-yl)pyridin-4-yl)-2-methylbenzyl)-1,2,4-oxadiazole-3-carboxamide] | 8.00 to 9.00 |
| CC#CC(=O)N1CCN(c2cnccc2-c2ccc(CNC(=O)c3noc(C(C)(C)C)n3)c(C)c2)CC1 [Example 62, N-(4-(3-(4-(but-2-ynoyl)piperazin-1-yl)pyridin-4-yl)-2-methylbenzyl)-5-(tert-butyl)-1,2,4-oxadiazole-3-carboxamide] | ≥ 9.00 |
| C=CC(=O)N1CC2CC1CN(c1cnccc1-c1ccc(CNC(=O)c3cc(C(C)(C)C)on3)c(C)c1)C2 (stereo not drawn) [Example 55, 5-tert-butyl-N-[[2-methyl-4-[3-(6-prop-2-enoyl-3,6-diazabicyclo[3.2.1]octan-3-yl)-4-pyridyl]phenyl]methyl]isoxazole-3-carboxamide] | < 8.00 |
| Cc1cc(-c2c(F)cncc2N2CCN(C(=O)/C=C/CN(C)C)CC2)ccc1CNC(=O)c1noc(C(C)(C)C)n1 [Example 76, (E)-5-(tert-butyl)-N-(4-(3-(4-(4-(dimethylamino)but-2-enoyl)piperazin-1-yl)-5-fluoropyridin-4-yl)-2-methylbenzyl)-1,2,4-oxadiazole-3-carboxamide] | ≥ 9.00 |
| C=CC(=O)N1CC2CC1CN(c1cnccc1-c1ccc(CNC(=O)c3cn(C(C)(C)C)nn3)c(C)c1)C2 (stereo not drawn) [Example 54, 1-tert-butyl-N-[[2-methyl-4-[3-(6-prop-2-enoyl-3,6-diazabicyclo[3.2.1]octan-3-yl)-4-pyridyl]phenyl]methyl]triazole-4-carboxamide] | < 8.00 |
| C=CC(=O)N1CCC[C@H](c2cnccc2-c2ccc(CNC(=O)c3noc(C4(C)CC4)n3)c(C)c2)C1 (single isomer, unassigned) [Example 27] | < 8.00 |
| C=CC(=O)N1CCC2(CCN(c3cnccc3-c3ccc(CNC(=O)c4cn(C)nc4C(F)F)c(C)c3)C2)C1 (stereo not drawn) [Example 5, N-(4-(3-(7-acryloyl-2,7-diazaspiro[4.4]nonan-2-yl)pyridin-4-yl)-2-methylbenzyl)-3-(difluoromethyl)-1-methyl-1H-pyrazole-4-carboxamide] | < 8.00 |
| C=CC(=O)N1CCN(c2cncnc2-c2ccc(CNC(=O)c3cn(C(C)(C)C)nn3)c(C)c2)CC1 [Example 50, N-(4-(5-(4-acryloylpiperazin-1-yl)pyrimidin-4-yl)-2-methylbenzyl)-1-(tert-butyl)-1H-1,2,3-triazole-4-carboxamide] | ≥ 9.00 |
| C=CC(=O)N1CCN(c2cnccc2-c2ccc(CNC(=O)c3noc(C(C)(C)C)c3F)c(C)c2)CC1 [Example 96, N-(4-(3-(4-acryloylpiperazin-1-yl)pyridin-4-yl)-2-methylbenzyl)-5-(tert-butyl)-4-fluoroisoxazole-3-carboxamide] | ≥ 9.00 |
| C=CC(=O)N(C)C1CCN(c2cncnc2-c2ccc(CNC(=O)c3cn(C(C)(C)C)nn3)c(C)c2)C1 (stereo not drawn) [Example 9, 1-(tert-butyl)-N-(2-methyl-4-(5-(3-(N-methylacrylamido)pyrrolidin-1-yl)pyrimidin-4-yl)benzyl)-1H-1,2,3-triazole-4-carboxamide] | ≥ 9.00 |
| C=CC(=O)N(C)CC1CCN(c2cnccc2-c2ccc(CNC(=O)c3noc(C(C)(C)C)n3)c(C)c2)C1 (stereo not drawn) [Example 20, 5-(tert-butyl)-N-(2-methyl-4-(3-(3-((N-methylacrylamido)methyl)pyrrolidin-1-yl)pyridin-4-yl)benzyl)-1,2,4-oxadiazole-3-carboxamide] | ≥ 9.00 |

Source: patent US20240327380A1, “BTK INHIBITORS” (BIOGEN MA INC., priority 2020, published 2024)
